According to US8871753B2, “Macrocyclic compounds and their use as kinase inhibitors” (Incyte Corporation, priority 2008, dated 2014):
Counter-ions that a name gives are not always drawn. Like-named read-outs stand apart in the source and are kept apart here.

Columns and labels:
Assay type in all cases: biochemical
[1] = molecular target: T1, human JAK1 (a.a. 837-1142) (Homo sapiens, UniProt P23458); assay: In vitro JAK kinase assay (HTRF, phosphorylation of a biotinylated peptide), JAK1; details: read-out: JAK1 IC50
T1 construct: human JAK1 (a.a. 837-1142); His tag (N); made in house; host or cells: insect cells (baculovirus)
T1 sequence (P23458 849-1154): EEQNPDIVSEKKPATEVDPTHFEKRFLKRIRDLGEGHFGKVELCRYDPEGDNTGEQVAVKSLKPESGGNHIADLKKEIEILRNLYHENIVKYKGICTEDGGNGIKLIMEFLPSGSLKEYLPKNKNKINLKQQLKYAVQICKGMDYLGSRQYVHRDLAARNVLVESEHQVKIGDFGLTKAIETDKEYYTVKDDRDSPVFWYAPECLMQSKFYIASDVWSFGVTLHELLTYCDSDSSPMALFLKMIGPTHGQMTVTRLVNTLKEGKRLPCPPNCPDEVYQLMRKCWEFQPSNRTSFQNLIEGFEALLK
In short: (§1)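 Phosphorylation of a biotinylated peptide by the JAK kinase domain, detected by HTRF with Eu-Py20 and SA-APC. ATP was 90 μM for JAK1, 30 μM for JAK2 and 3 μM for JAK3. Reactions ran 1 h at room temperature and were stopped with EDTA, followed by 40 min antibody binding.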

[2] = molecular target: T2, Recombinant Human Anaplastic Lymphoma Kinase (Homo sapiens, UniProt Q9UM73); assay: ALK HTRF kinase assay
T2 construct: purchased Invitrogen, Carlsbad, Calif
T2 sequence (Q9UM73 19-1620): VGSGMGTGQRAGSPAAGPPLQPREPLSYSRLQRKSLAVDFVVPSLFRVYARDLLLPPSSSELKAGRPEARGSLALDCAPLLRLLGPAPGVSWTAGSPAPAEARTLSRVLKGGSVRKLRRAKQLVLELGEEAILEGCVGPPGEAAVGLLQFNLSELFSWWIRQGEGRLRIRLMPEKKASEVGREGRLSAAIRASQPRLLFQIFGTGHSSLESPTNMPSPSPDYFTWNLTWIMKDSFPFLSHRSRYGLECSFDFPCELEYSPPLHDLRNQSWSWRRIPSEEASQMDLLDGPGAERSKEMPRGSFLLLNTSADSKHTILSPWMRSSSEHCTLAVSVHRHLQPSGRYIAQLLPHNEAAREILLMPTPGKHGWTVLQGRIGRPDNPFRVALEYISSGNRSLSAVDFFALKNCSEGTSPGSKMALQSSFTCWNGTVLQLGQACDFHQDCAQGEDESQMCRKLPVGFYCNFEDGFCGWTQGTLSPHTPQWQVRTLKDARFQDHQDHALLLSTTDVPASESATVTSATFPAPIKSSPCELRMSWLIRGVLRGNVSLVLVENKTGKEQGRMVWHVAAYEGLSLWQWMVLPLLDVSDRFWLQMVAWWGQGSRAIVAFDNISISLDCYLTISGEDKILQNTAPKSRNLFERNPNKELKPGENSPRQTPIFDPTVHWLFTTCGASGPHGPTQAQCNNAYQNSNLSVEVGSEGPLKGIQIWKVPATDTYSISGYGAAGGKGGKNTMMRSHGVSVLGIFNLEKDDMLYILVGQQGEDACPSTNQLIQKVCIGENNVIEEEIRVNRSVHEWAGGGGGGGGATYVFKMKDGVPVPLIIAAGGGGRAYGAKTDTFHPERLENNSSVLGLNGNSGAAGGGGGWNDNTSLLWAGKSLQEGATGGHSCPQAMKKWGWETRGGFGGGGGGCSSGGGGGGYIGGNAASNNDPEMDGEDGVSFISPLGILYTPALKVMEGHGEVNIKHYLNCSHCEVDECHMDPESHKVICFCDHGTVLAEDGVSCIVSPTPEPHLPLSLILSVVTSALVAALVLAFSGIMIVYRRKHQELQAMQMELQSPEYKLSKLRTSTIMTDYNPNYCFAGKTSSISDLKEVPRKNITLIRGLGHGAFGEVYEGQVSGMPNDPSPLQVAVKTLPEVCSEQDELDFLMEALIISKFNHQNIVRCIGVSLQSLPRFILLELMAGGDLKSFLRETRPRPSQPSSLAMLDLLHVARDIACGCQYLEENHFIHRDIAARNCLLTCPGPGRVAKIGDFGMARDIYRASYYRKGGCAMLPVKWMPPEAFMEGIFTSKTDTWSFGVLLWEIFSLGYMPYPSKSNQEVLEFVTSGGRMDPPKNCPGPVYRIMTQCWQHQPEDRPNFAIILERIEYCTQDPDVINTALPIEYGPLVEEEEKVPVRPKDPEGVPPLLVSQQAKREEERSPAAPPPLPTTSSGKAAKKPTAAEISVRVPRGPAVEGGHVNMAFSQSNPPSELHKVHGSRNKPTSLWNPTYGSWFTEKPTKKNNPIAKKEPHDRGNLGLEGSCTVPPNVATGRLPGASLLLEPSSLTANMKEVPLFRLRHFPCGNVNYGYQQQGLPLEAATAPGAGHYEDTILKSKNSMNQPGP
In short: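 IC50 was obtained from a logistic fit of signal versus log inhibitor concentration, using pre- and post-transition baselines and a Hill slope. The signal reported tyrosine phosphorylation of a biotinylated peptide by recombinant human kinase, detected as Eu-to-APC energy transfer.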

[3] = molecular target: T3, human JAK2 (a.a. 828-1132) (Homo sapiens, UniProt O60674); assay: In vitro JAK kinase assay (HTRF, phosphorylation of a biotinylated peptide), JAK2
T3 construct: JAK2 (a.a. 828-1132); His tag (N); made in house; host or cells: insect cells (baculovirus)
T3 sequence (O60674 828-1132): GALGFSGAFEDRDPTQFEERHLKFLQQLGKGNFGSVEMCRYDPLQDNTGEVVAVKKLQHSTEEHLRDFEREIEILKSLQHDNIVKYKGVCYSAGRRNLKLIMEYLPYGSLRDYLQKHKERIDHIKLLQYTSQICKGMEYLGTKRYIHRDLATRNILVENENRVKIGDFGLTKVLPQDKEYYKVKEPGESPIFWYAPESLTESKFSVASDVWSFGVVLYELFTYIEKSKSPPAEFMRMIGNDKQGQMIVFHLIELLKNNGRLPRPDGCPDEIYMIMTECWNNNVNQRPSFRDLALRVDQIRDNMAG
In short: as §1

[4] = molecular target: T4, human JAK3 (a.a. 781-1124) (Homo sapiens, UniProt P52333); assay: In vitro JAK kinase assay (HTRF, phosphorylation of a biotinylated peptide), JAK3
T4 construct: JAK3 (a.a. 781-1124); His tag (N); made in house; host or cells: insect cells (baculovirus)
T4 sequence (P52333 781-1124): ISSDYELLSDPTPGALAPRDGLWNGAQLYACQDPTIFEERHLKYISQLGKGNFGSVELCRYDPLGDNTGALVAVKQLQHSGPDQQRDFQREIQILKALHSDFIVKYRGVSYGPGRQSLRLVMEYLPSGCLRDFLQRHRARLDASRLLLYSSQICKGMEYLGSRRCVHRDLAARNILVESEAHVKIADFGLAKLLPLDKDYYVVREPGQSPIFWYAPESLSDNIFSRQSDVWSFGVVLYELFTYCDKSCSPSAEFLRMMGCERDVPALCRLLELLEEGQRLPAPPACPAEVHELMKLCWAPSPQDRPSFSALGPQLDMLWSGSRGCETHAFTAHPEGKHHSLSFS
In short: as §1

[5] = molecular target: TYK2 (Homo sapiens, UniProt P29597); assay: TYK2 kinase inhibition (Table A1)
Chain of TYK2 (P29597 whole entry): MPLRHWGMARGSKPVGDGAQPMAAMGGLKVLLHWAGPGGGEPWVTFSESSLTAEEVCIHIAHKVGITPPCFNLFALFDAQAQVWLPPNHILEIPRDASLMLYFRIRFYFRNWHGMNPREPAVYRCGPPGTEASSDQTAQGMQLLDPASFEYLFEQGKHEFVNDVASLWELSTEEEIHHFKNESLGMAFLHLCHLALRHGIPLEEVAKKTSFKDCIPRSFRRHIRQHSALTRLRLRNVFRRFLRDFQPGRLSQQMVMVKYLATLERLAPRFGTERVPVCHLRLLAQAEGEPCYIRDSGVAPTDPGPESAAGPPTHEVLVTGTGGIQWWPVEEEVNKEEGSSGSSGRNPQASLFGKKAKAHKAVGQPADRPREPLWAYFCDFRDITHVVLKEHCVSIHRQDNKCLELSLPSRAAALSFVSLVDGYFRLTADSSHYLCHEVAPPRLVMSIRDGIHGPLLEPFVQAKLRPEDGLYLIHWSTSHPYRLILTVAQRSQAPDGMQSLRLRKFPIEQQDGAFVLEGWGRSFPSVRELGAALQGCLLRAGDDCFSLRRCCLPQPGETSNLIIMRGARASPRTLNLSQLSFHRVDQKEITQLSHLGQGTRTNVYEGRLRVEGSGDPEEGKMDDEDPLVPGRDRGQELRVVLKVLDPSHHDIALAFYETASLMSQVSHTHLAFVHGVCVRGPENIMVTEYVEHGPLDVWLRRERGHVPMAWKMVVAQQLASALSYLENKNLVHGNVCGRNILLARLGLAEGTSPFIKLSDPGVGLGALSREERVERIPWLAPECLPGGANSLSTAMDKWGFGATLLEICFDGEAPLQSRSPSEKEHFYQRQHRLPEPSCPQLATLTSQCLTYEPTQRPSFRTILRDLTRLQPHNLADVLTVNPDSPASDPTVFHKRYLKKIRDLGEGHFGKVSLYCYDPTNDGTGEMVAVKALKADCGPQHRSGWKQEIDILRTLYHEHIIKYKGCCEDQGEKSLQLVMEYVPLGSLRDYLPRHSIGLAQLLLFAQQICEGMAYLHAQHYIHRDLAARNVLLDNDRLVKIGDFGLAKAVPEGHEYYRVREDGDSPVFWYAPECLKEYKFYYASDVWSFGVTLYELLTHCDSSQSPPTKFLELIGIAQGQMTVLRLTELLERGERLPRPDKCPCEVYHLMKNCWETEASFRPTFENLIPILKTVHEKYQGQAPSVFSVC

[6] = compound at a concentration of 500 nM or 1 mM (not specified), cells shown as percentage
[7] = Table B1, cells without percent sign
[8] = method AA1 (90 μM ATP) or AA2 (1000 μM ATP), not stated per value
[9] = compound at 500 nM or 1 mM, 90 μM ATP
[10] = method AA1 (30 μM ATP) or AA2 (1000 μM ATP), not stated per value
[11] = method AA1 (3 μM ATP) or AA2 (1000 μM ATP), not stated per value

SMILES | IC50 ([1]; Table B1) | IC50 ([3]; Table B1) | IC50 ([4]; Table B1) | IC50 ([5]; Table B1) | IC50 [1, 8] | IC50 [3, 10] | IC50 [4, 11] | IC50 [5] | also measured
Cc1nc(S(=O)(=O)Nc2cc3cc(c2)OCCSc2cccc(c2)Nc2nc(ncc2Cl)N3)cn1C [Example D69, N-[6-Chloro-17-oxa-14-thia-2,4,8,24-tetraazatetracyclo[16.3.1.1(3,7).1(9,13)]tetracosa-1(22),3(24),4,6,9(23),10,12,18,20-nonaen-20-yl]-1,2-dimethyl-1H-imidazole-4-sulfonamide bis(trifluoroacetate)] | – | – | – | – | – | – | – | – | IC50 ([1]; Table D1): 3.5 nM; IC50 ([2]; Table D1, 90 μM ATP): 160 nM; IC50 ([3]; Table D1): 1.4 nM; IC50 ([4]; Table D1): 8.6 nM; IC50 ([5]; Table D1): 8.4 nM
O=C(CC1CCN(S(=O)(=O)c2ccccc2F)CC1)Nc1ccc2cc1CCc1cncc(c1)Nc1ncc(Cl)c(n1)N2 [Example A226, N-[6-Chloro-2,4,8,18,22-pentaazatetracyclo[14.3.1.1(3,7).1(9,13)]docosa-1(20),3(22),4,6,9(21),10,12,16,18-nonaen-12-yl]-2-{1-[(2-fluorophenyl)sulfonyl]piperidin-4-yl}acetamide bis(trifluoroacetate)] | – | – | – | – | 5.3 nM | 100 nM | > 400 nM | > 400 nM | ALK % of inhibition at a concentration of 500 nM or 1 mM [2, 9]: 55%
Oc1ccc2cc1Nc1nc(ncc1Cl)Nc1cccc(c1)CC2 [Example A26, 6-Chloro-2,4,8,22-tetraazatetracyclo[14.3.1.1(3,7).1(9,13)]docosa-1(20),3(22),4,6,9(21),10,12,16,18-nonaen-10-ol trifluoroacetate] | – | – | – | – | 36 nM | 11 nM | 9.2 nM | 45 nM | IC50 ([2]; 90 μM ATP): 350 nM
CCS(=O)(=O)N1CCC(CC(=O)Nc2ccc3cc2CCc2cccc(c2)Nc2ncc(Cl)c(n2)N3)CC1 [Example A83, N-[6-Chloro-2,4,8,22-tetraazatetracyclo[14.3.1.1(3,7).1(9,13)]docosa-1(20),3(22),4,6,9(21),10,12,16,18-nonaen-12-yl]-2-[1-(ethylsulfonyl)piperidin-4-yl]acetamide trifluoroacetate] | – | – | – | – | 1.9 nM | 2.5 nM | 12 nM | 2.5 nM | ALK % of inhibition at a concentration of 500 nM or 1 mM [2, 9]: 41%
Cc1cc(C(=O)N2CCC(CC(=O)Nc3ccc4cc3CCc3cncc(c3)Nc3ncc(Cl)c(n3)N4)CC2)n[nH]1 [Example A163, N-[6-Chloro-2,4,8,18,22-pentaazatetracyclo[14.3.1.1(3,7).1(9,13)]docosa-1(20),3(22),4,6,9(21),10,12,16,18-nonaen-12-yl]-2-{1-[(5-methyl-1H-pyrazol-3-yl)carbonyl]piperidin-4-yl}acetamide bis(trifluoroacetate)] | – | – | – | – | 0.5 nM | 36 nM | > 100 nM | 3 nM | ALK % of inhibition at a concentration of 500 nM or 1 mM [2, 9]: 29%
N#Cc1ccc(C(=O)N2CCC(CC(=O)Nc3ccc4cc3CCc3cccc(c3)Nc3ncc(Cl)c(n3)N4)CC2)cc1 [Example A186, N-[6-Chloro-2,4,8,22-tetraazatetracyclo[14.3.1.1(3,7).1(9,13)]docosa-1(20),3(22),4,6,9(21),10,12,16,18-nonaen-12-yl]-2-[1-(4-cyanobenzoyl)piperidin-4-yl]acetamide trifluoroacetate] | – | – | – | – | 58 nM | 185 nM | > 200 nM | > 200 nM | ALK % of inhibition at a concentration of 500 nM or 1 mM [2, 9]: 38%

Continued, in another order:

IC50 ([1]; Table B1) | IC50 ([3]; Table B1) | IC50 ([4]; Table B1) | IC50 ([5]; Table B1) | IC50 [1, 8] | IC50 [3, 10] | IC50 [4, 11] | IC50 [5] | SMILES | also measured
15 nM | 150 nM | 1400 nM | 2300 nM | – | – | – | – | NC1CCN(c2ccnc(Nc3ccc4cc3CCc3cccc(c3)Nc3ncc(Cl)c(n3)N4)n2)CC1 [Example B281, N-[4-(4-Aminopiperidin-1-yl)pyrimidin-2-yl]-6-chloro-2,4,8,22-tetraazatetracyclo[14.3.1.1(3,7).1(9,13)]docosa-1(20),3(22),4,6,9(21),10,12,16,18-nonaen-12-amine tris(trifluoroacetate)] | ALK % of inhibition at a concentration of 500 nM or 1 mM [2, 6]: 24%
18 nM | 2.2 nM | 138 nM | 188 nM | – | – | – | – | COc1ccc(CN2CCN(Cc3cc4cc(c3)Nc3nc(ncc3Cl)Nc3cccc(c3)CC4)CC2)cc1 [Example B197, 6-Chloro-11-{[4-(4-methoxybenzyl)piperazin-1-yl]methyl}-2,4,8,22-tetraazatetracyclo[14.3.1.1(3,7).1(9,13)]docosa-1(20),3(22),4,6,9(21),10,12,16,18-nonaene tris(trifluoroacetate)] | IC50 [2, 7]: > 1000 nM
5.9 nM | 2 nM | 1.5 nM | 14 nM | – | – | – | – | CCCC(=O)Nc1ccc2cc1CCc1cccc(c1)Nc1ncc(Cl)c(n1)N2 [Example B56, N-[6-Chloro-2,4,8,22-tetraazatetracyclo[14.3.1.1(3,7).1(9,13)]docosa-1(20), 3(22),4,6,9(21),10,12,16,18-nonaen-12-yl]butanamide trifluoroacetate] | IC50 [2, 7]: 720 nM
2.6 nM | 3.4 nM | 43 nM | 12 nM | – | – | – | – | O=C(NCc1ccccc1)Nc1ccc2cc1CCc1cccc(c1)Nc1ncc(Cl)c(n1)N2 [Example B93, N-benzyl-N′-[6-chloro-2,4,8,22-tetraazatetracyclo[14.3.1.1(3,7).1(9,13)]docosa-1(20),3(22),4,6,9(21),10,12,16,18-nonaen-12-yl]urea trifluoroacetate] | IC50 [2, 7]: > 1000 nM
4.9 nM | 3.9 nM | 5.9 nM | 14 nM | – | – | – | – | CCC(=O)Nc1ccc2cc1CCc1cccc(c1)Nc1ncc(Cl)c(n1)N2 [Example B54, N-[6-Chloro-2,4,8,22-tetraazatetracyclo[14.3.1.1(3,7).1(9,13)]docosa-1(20), 3(22),4,6,9(21),10,12,16,18-nonaen-12-yl]propanamide trifluoroacetate] | IC50 [2, 7]: 970 nM
0.84 nM | 2.2 nM | 7.6 nM | 8 nM | – | – | – | – | O=C(Nc1ccc2cc1CCc1cccc(c1)Nc1ncc(Cl)c(n1)N2)c1ccc(C(F)(F)F)nc1 [Example B77, N-[6-Chloro-2,4,8,22-tetraazatetracyclo[14.3.1.1(3,7).1(9,13)]docosa-1(20), 3(22),4,6,9(21),10,12,16,18-nonaen-12-yl]-6-(trifluoromethyl)nicotinamide bis(trifluoroacetate)] | ALK % of inhibition at a concentration of 500 nM or 1 mM [2, 6]: 54%
0.92 nM | 1.5 nM | 16 nM | 3.1 nM | – | – | – | – | COCCNC(=O)Nc1ccc2cc1CCc1cccc(c1)Nc1ncc(Cl)c(n1)N2 [Example B243, N-[6-Chloro-2,4,8,22-tetraazatetracyclo[14.3.1.1(3,7).1(9,13)]docosa-1(20),3(22),4,6,9(21),10,12,16,18-nonaen-12-yl]-N′-(2-methoxyethyl)urea trifluoroacetate] | ALK % of inhibition at a concentration of 500 nM or 1 mM [2, 6]: 14%
1.6 nM | 17 nM | 228 nM | 34 nM | – | – | – | – | O=C(Nc1ccc2cc1CCc1cccc(c1)Nc1ncc(Cl)c(n1)N2)N[C@H]1CCN(C(=O)c2ccccc2)C1 [Example B170, N-[(3S)-1-Benzoylpyrrolidin-3-yl]-N′-[6-chloro-2,4,8,22-tetraazatetracyclo[14.3.1.1(3,7).1(9,13)]docosa-1(20),3(22),4,6,9(21),10,12,16,18-nonaen-12-yl]urea trifluoroacetate] | ALK % of inhibition at a concentration of 500 nM or 1 mM [2, 6]: 12%
